# Test results from patent US9505783B2, “Method of producing pyrone and pyridone derivatives” (priority 2009, dated 2016).
# What was measured:
# [1] = molecular target: cap-dependent endonuclease (RNP fraction containing PB1•PB2•PA complex) (Influenza A virus, UniProt P15659); assay: Measurement of cap-dependent endonuclease (CEN) inhibitory activity; type: biochemical; details: RNP enzyme from A/WSN/33 virus, capped Cy3/BHQ2-labelled 30mer RNA substrate, room temperature 60 minutes
# [2] = test system: influenza virus; assay: CPE inhibitory effect confirming assay; type: cell-based; details: unidentified influenza virus, 72 h, read-out: CPE IC50
SMILES,IC50 [1],IC50 [2]
CN1C(=O)c2c(O)c(=O)c(C(=O)O)cn2C[C@H]1C(c1ccccc1)c1ccccc1 [Compound 43],78 nM,1410 nM
CCOC(=O)CCN1CN(C(c2ccccc2)c2ccccc2)n2ccc(=O)c(O)c2C1=O [Compound 128],63 nM,416 nM
O=C(O)c1cn2c(c(O)c1=O)C(=O)N1CCCO[C@H]1[C@@H]2C(c1ccccc1)c1ccccc1 [Compound 175],132 nM,102 nM
